Here are results for 15 molecules from patent US4075206A, “Substituted pyrroloquinoxalinones and diones” (Eli Lilly and Company, priority 1977, dated 1978).

Assay [1] relates to erythema produced by an ultra-violet light source on guinea pig skin. The experiment in a line: Anti-inflammatory: block of UV-light-induced erythema on guinea pig skin (method of Windner et al.). The format is in vivo, albino guinea pigs. The conditions noted are these: oral; for ED50: Cavia porcellus, dose producing 50 percent inhibition of the erythemic response, groups of four guinea pigs; for Inhibition at 50 mg/kg dose: percent inhibition of erythema at 50 mg/kg where an ED50 was not determined. Here is the method:
The compounds of this invention are anti-inflammatory and anti-thrombotic agents. […] Int. Pharmacodyn, 116, 261 (1958). In this procedure, albino quinea pigs weighing 225- 300 gms. are shaved on the back and chemically depilated 18 to 20 hours before initiation of the test procedures. Animals in groups of 4 are given predetermined dosages of the drug under test with one group being maintained as a control group. The drug is administered by the oral route as a suspension in 1 percent aqueous sodium carboxymethylcellulose. The control animals receive only the suspending median. After having being given the drug or suspension medium only, each group of animals is exposed to a high-intensity ultra-violet light for a predetermined period of time, the ultra-violet light being placed in contact with the depilated skin area on the animals' back. A gummed paper reinforcement is affixed to the lamp lens to provide an unexposed area of contrast for grading the light-produced erythema.
Beginning one hour after exposure and thereafter at half-hour intervals for another 1.5 hours, a trained observer grades erythema using an arbitraty scoring system based upon the degree of contrast and redness formed. […] The following scoring system is used: […]
______________________________________
Score Appearance of Exposed Area
0 No redness and no contrast
1 Slight redness with a faint
2 Slight to moderate redness
with a distinct outline
3 Marked redness with a distinct
Total scores from each treatment group of four guinea pigs are compared to the control treatment, and the percent inhibition calculated as follows: [formula]
If desired, a dose-response graph can be obtained by plotting dose versus percent inhibition, each point representing the average of one treatment group of four guinea pigs. The dose (ED50) in mg/kg cm.^2) which produced a 50 percent inhibition of the erythemic response for the particular compound tested can then be obtained, either directly or by extrapolation. Table I below summarizes the results obtained from testing representative compounds of the invention by the foregoing method.

The subject of assay [2] is collagen-induced platelet aggregation. The assay is described as follows: Platelet aggregation test: collagen-induced platelet aggregation after oral dosing (method of Hermann et al.). The settings on record: Cavia porcellus, 1 h, 2 doses, time zero and 2 hours later, blood 60 minutes after last dose, active = about 50% inhibition of collagen-induced aggregation, N.A. = not active at 100 mg/kg × 2, read-out: P.A. (lowest active dose in the platelet aggregation test). It counts as in vivo, guinea pigs. Here is the method:
Certain of the compounds of this invention are also platelet aggregation inhibitors and the results of testing for this activity are also included in Table I. The platelet aggregation test used involves the effect of a drug upon collagen-induced platelet aggregation using the method of Hermann et al., Proc. Soc. Exp. Biol. Med. 136, 548 (1972). According to this procedure, 300- 400 g. guinea pigs are used and the compound is administered by the oral route in 2 doses, at time zero and again 2 hours later, at a series of graded dose levels to groups of 4 pigs each. One group is maintained as a control group. Blood is removed by heart puncture 60 minutes after the last dose, and a platelet-rich plasma prepared therefrom. A stock collagen solution is prepared by solubilizing bovine Achilles tendon with acetic acid. The stock solution contains 0.25 percent collagen, has a pH of 2.8 and is kept under refrigeration. Prior to use, 0.4 ml. of 1M aqueous sodium hydroxide is added to a 1 ml. aliquot of the stock solution, followed by further dilutions with saline (1:2 1:4, 1:8, 1:16, 1:32, etc.) A standard collagen challenge was used, 0.05 ml. of 1:45 dilution, to induce platelet aggregation and the aggregation response of the drugged guinea pigs was compared to that of the controls to determine inhibition of aggregation. The lowest active dose in mg./kg. × 2 is then determined, "active" being defined as giving about 50% inhibition of collagen-induced aggregation. (Activity was determined by computor printout with significance at the 95 percent confidence level being attained at about the 50 percent inhibition level). In Table 1, column 1 gives the name of the compound, column 2, the ED50 calculated as set forth above and column 3, the percent inhibition at a 50 mg/kg dose level where an ED50 was not determined and column 4, the lowest active dose in the platelet aggregation test. N. A. indicates "not active" at 100 mg/kg × 2 in this latter test.

As to `CCN1C(=O)CN2C(=O)C(c3ccccc3)c3cccc1c32` (centres unmarked) [1-Ethyl-6-phenyl-1H-pyrrolo[1,2,3-de]quinoxalin-2,5(3H,6H)-dione], the ED50 in assay [1] was 33 mg/kg. Moreover, the minimal effective dose in assay [2] came to 100 mg/kg. In the case of `CN1C(=O)CN2C(=O)C(c3ccccc3)c3cccc1c32` (centres unmarked) [1-Methyl-6-phenyl-1H-pyrrolo 1,2,3-de]quinoxalin-2,5(3H,6H)-dione], the 50% effect level in assay [1] (ED50) was put at a dose of 4.4 mg/kg. Further, in assay [2], the minimal effective dose came out at 3.12 mg/kg. Turning to `CCCN1C(=O)CN2C(=O)C(c3ccccc3)c3cccc1c32` (centres unmarked) [1-n-Propyl-6-phenyl-1H-pyrrolo[1,2,3-de]quinoxalin-2,5(3H,6H)-dione], the 50% effect level in assay [1] (ED50) was put at a dose of 47.5 mg/kg. Consider `O=C1C(c2ccccc2)c2cccc3c2N1CCN3` (centres unmarked) [2,3-dihydro-6-phenyl-1H-pyrrolo[1,2,3-de]quinoxalin-5(6H)-one], for which the 50% effect level in assay [1] (ED50) was put at a dose of 7.9 mg/kg. In assay [2], the minimal effective dose is 100 mg/kg. The corresponding values for `O=C1CCN2C(=O)C(c3ccccc3)c3cccc(c32)N1` (centres unmarked) [3,4-DIHYDRO-7-PHENYL-1H-PYRROLO[ 1,2,3-ef]-BENZO-[ f]DIAZEPINE-2,6(1H,7H)-DIONE] are 12 mg/kg and 50 mg/kg. With `O=C1CN2C(=O)C(c3ccccc3)(c3ccccc3)c3cccc(c32)N1` [6,6-diphenyl-1H-pyrrolo-[1,2,3-de]quinoxalin-2,5 (3H,6H)-dione], the 50% effect level in assay [1] (ED50) was put at a dose of 36 mg/kg. As for `O=C1CN2C(=O)C(c3ccc(Cl)cc3)c3cccc(c32)N1` (centres unmarked) [6-(4-chlorophenyl)-1H-pyrrolo[1,2,3-de]-quinoxalin-2,5(3H,6H)-dione], the “Inhibition at 50 mg/kg dose” value in assay [1] was 48%. In assay [1], `O=C1CN2C(=O)C(c3ccc(F)cc3)c3cccc(c32)N1` (centres unmarked) [6-(p-fluoro)phenyl-1H-pyrrolo[1,2,3-de]quinoxalin-2,5 (3H,6H)-dione] came in with an ED50 of 7.7 mg/kg. In addition, in assay [2], the minimal effective dose is 12.5 mg/kg.

Take `O=C1CN2C(=O)C(c3ccccc3)c3c2c(cc2ccccc32)N1` (centres unmarked) [6-phenyl-1H-benzo[g]pyrrolo[1,2,3-de]quinoxalin-2,5(3H,6H)-dione]: in assay [1], the “Inhibition at 50 mg/kg dose” value is 42%. Regarding `O=C1CN2C(=O)C(c3ccccc3)c3cccc(c32)N1` (centres unmarked) [6-phenyl-1H-pyrrolo[1,2,3-de]quinoxalin-2,5(3H,6H)-dione], the 50% effect level in assay [1] (ED50) was put at a dose of 0.9 mg/kg. The minimal effective dose in assay [2] came out at 1.56 mg/kg.

Take `CCC1C(=O)Nc2cccc3c2N1C(=O)C3c1ccccc1` (centres unmarked) [6-phenyl-3-ethyl-1H-pyrrolo[1,2,3-de]quinoxalin-2,5(3H,6H)-dione]: the ED50 in assay [1] was determined as 1 mg/kg. The minimal effective dose in assay [2] turned out to be 50 mg/kg. For `CC1C(=O)Nc2cccc3c2N1C(=O)C3c1ccccc1` (centres unmarked) [6-phenyl-3-methyl-1H-pyrrolo 1,2,3-de]quinoxalin-2,5(3H,6H)-dione], in that order: 2.5 mg/kg and 1.56 mg/kg. Regarding `O=C1CN2C(=O)C(c3ccccc3)c3cc(Cl)cc(c32)N1` (centres unmarked) [6-phenyl-8-chloro-1H-pyrrolo[1,2,3-de]quinoxalin-2,5(3H,6H)-dione], in assay [1], the “Inhibition at 50 mg/kg dose” value turned out to be 50%. Moreover, the minimal effective dose in assay [2] was 100 mg/kg. In assay [1], `COc1cc2c3c(c1)C(c1ccccc1)C(=O)N3CC(=O)N2` (centres unmarked) [6-phenyl-8-methoxy-1H-pyrrolo[1,2,3-de]quinoxalin-2,5(3H,6H)-dione] showed an ED50 of 45 mg/kg. The minimal effective dose in assay [2] is 6.25 mg/kg. On to `Cc1cc2c3c(c1)C(c1ccccc1)C(=O)N3CC(=O)N2` (centres unmarked) [6-phenyl-8-methyl-1H-pyrrolo[1,2,3-de]quinoxalin-2,5(3H,6H)-dione], for which the “Inhibition at 50 mg/kg dose” value in assay [1] was determined as 51%. The minimal effective dose in assay [2] stood at 3.12 mg/kg.
